Where a name gives a salt, the structure may show the parent alone. Read-outs that look alike come from different tables or passages of the source.
Target: T1, prolyl oligopeptidase (rPOPLi) (Leishmania infantum, UniProt A4ICB5)
T1 construct: gene LINJ_36_7060; full-length, recombinant from E. coli (pET-15b)
Assay: fluorogenic assay, single concentration […]
Assay type: biochemical

T1 sequence (A4ICB5 entry or part of it): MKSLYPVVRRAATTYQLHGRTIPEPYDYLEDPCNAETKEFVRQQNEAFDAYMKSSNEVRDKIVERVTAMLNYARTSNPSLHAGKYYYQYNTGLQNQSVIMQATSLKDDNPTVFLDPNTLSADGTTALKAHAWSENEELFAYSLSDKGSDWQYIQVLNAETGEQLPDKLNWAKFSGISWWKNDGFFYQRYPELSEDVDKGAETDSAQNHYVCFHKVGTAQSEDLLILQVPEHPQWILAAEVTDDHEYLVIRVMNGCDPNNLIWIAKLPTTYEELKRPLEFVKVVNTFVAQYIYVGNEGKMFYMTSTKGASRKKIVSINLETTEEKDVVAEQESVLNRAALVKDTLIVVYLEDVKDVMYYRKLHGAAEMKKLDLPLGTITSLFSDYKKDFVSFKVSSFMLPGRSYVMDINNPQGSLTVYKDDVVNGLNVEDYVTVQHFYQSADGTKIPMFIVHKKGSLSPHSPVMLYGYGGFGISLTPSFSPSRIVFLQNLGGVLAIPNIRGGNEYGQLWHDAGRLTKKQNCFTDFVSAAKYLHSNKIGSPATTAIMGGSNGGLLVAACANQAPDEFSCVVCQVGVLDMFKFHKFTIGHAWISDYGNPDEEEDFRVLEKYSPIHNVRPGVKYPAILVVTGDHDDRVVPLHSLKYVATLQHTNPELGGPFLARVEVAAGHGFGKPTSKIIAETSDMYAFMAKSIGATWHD

| inhibition at 100 µM (read-out: Inhibition (%)) [%] | Compound | inhibition at 100 µM [%] |
| --- | --- | --- |
| 92.3 | Cc1ccc(S(=O)(=O)N[C@@H](Cc2ccccc2)C(=O)CCl)cc1 [TPCK, N-p-Tosyl-L-phenylalanine chloromethyl ketone] |  |
|  | Cc1ccc(S(=O)(=O)N[C@@H](CCCCN)C(=O)CCl)cc1 [TLCK, N-α-Tosyl-L-lysine chloromethyl ketone hydrochloride] | 96.8 |

Source: publication PMC7271538 (Frontiers in Microbiology, 2020)
